By IC50 is commonly meant the concentration that inhibits the measured activity by half.

The subject of one series is Rho/MKL1 pathway. Briefly: SRE.L-firefly luciferase reporter (dual luciferase assay), Gα12QL-transfected PC-3 cells. It is filed as cell-based, human. To be noted: 19 hrs. The method in brief: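 PC-3 cells were transfected for 6 h with Gα12QL plus SRE.L-firefly reporter and TK-Renilla co-reporter. Cells were then exposed to compounds for 19 h at 37 °C in 0.5% FBS DMEM, lysed, and luminescence read; Renilla flags non-specific effects.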
(In a reporter assay the amount or activity of a reporter protein is the signal.)

The test system of series [1] is TK-Renilla luciferase reporter. In words: TK-Renilla (pRL-TK) luciferase reporter, indicator of non-specific compound effects. It is filed as cell-based, human. Particulars: 10 μM, PC-3 cells, 19 hrs. The protocol: Dual Luciferase Assay: Seed PC-3 prostate cancer cells (40,000 cells/well) were grown in 96-well plates in 10% FBS containing DMEM medium. Cells were transiently transfected with the Gα12QL activator of the Rho/MKL1 pathway, along with the SRE.L-firefly luciferase reporter construct for 6 hours. Additionally, cells were co-transfected with the TK-Renilla luciferase reporter as an indicator of non-specific compound effects. Various concentrations of selected compounds were added to the 96-well plates. Plates were incubated for 19 hours at 37° C. and 5% CO2 in 0.5% FBS containing DMEM medium. Cells were lysed with 1X Passive Lysis Buffer (Promega). Plates were incubated for 30 minutes at room temperature. Luminescence counts were read with a Victor2 (Perkin-Elmer) plate reader.

Series [2] deals with PC-3 prostate cancer cells. In words: WST1 cell viability assay. It is filed as cell-based, human. Particulars: 10 μM, PC-3 cells, just before lysis. As for the experimental part:
WST1 Cell Viability Assay: One hour prior to cell lysis for the dual luciferase assay, 10 μl per well of WST1 reagent (Roche) was added to the 96-well plates. Plates were incubated for 1 hour at 37° C. and 5% CO2. Cell viability was measured by WST1 absorbance at 450 nm with a Victor2 (Perkin-Elmer) plate reader.

Series [3] is described as follows: In vivo studies using CCG-1423.
The test system of series [4] is PC-3 cells, melanoma and other cancer cell lines. Briefly: Cancer cell proliferation and survival (BrdUrd, WST-1, caspase-3; FIG. 2). In kind it is cell-based. The protocol:
A, PC-3 cells were treated for 27 h with 100 μmol/L LPA in the presence or absence of various concentrations of CCG-1423, labeled with BrdUrd, and stained, and absorbance was read 450 nm. B, various cell lines were treated with […] LPA with or without […] CCG-1423, and then on day 8, WST-1 absorbance was read at 450 nm Black columns indicate four melanoma lines with differing expression of RhoC (A375M2 and SK-MeI-147 have high expression, whereas the parental line A375 (used to derive A375M2) and SK-Mel-28 have lower expression); gray columns indicate several other cancer cell lines; white column indicates the nontransformed fibroblast line WI-38. C, A375 and A375M2 cells were treated with 3 μmol/L CCG-1423 or 3 μmol/L daunorubicin for 25 h, and then caspase-3 activity was measured with a fluorescent substrate (Z0DEVD0R110) using excitation at 485 nm and emission detection at 520 nm. In A and C, data are expressed as a percentage of the no FBS control. In B, data are expressed as percentage of the LPA+DMSO control. All data represent n=3.

Series [5] relates to PC-3 prostate cancer cells. In words: Matrigel invasion, spontaneous (FIG. 3). It is filed as cell-based, human. Particulars: 3 μmol/L, spontaneous invasion through Matrigel. The protocol:
A, LPA stimulates invasion of SKOV-3 but not PC-3 cells. Invasion of Matrigel®-coated filters by serum-starved PC-3 prostate cancer or SKOV-3 ovarian cancer cells were measured with or without 30 μmol/L LPA as chemoattractant. B, CCG-1423 inhibits PC-3 cell invasion, whereas PTX inhibits SKOV-3 cell invasion. The effects of CCG-1423 (3 μmol/L) and PTX (100 ng/mL) on spontaneous (PC-3) or LPA-stimulated (SKOV-3) invasion through Matrigel® were measured. In B, data are expressed as a percentage of control. All data represent n=3.

The subject of series [6] is Rho/MKL1 mediated transcription. Particulars: read-out: IC50 for blocking gene transcription; cited from earlier work.
For series [7], the system named is Rho-expressing prostate cancer and melanoma cell lines. Particulars: read-out: IC50 for inhibiting DNA synthesis, cell growth and survival, and Matrigel invasion; cited from earlier work.

In the case of `CC(ONC(=O)c1cc(C(F)(F)F)cc(C(F)(F)F)c1)C(=O)Nc1ccc(Cl)cc1` (stereo not drawn) [CCG-1423], the “% inh SRE.L (10 μM)” value in the series on Rho/MKL1 pathway (10 μM, DMSO alone = 0%) is listed as 74, ND %. In addition, the results for the IC50 (with Rho/MKL1 pathway; in series [6]; in series [7]) were 1.5 µM, 1 µM and 1 µM, respectively. Further, in series [1], the “% inh PRL-TK (10 μM)” value was 48, ND %. Besides, the “% inh WST-1 (10 μM)” value in series [2] is reported as 44, ND %. Besides, the in vivo toxicity entry in series [3] was “limited by non-specific toxicity”. In addition, the “cancer cell proliferation and survival” value in series [4] was “inhibits”. The PC-3 cell invasion result in series [5] is on record as “inhibits”.

Values taken from patent US20120252792A1, “METHODS AND COMPOSITIONS FOR MODULATING RHO-MEDIATED GENE TRANSCRIPTION” (THE REGENTS OF THE UNIVERSITY OF MICHIGAN, priority 2009, published 2012).
